Assay results: patent US6369066B1, “Substituted 1,3-oxathiolanes with antiviral properties” (BioChem Pharma, Inc., priority 1990, dated 2002)
Converted amounts (≈) assume the structure as drawn.

Tests used:
Format in all cases: cell-based
HIV-1 strain RF = assay: Formazan (MTT) assay on MT-4 cells, anti-HIV-1 antiviral activity; settings: Human immunodeficiency virus 1, MT4, 168 h, MT-4 cells infected with HIV-1 strain RF, 7 days, read-out: IC50 (50% anti-viral dose, ID 50%)
Description: Formazan Assay on MT-4 and 3TC™-Resistant Cell Lines
(§1) Anti-HIV-1 antiviral activity was determined in MT-4 calls and MT-4 cells that have been made resistant to 3TC™. A suspension of cells (approximately 10^6 cells/ml) in RPMI 1640 growth medium was infected with HIV-1 strain RF at a M.O.I. of 10^−3 infectious units/cell. An uninfected cell suspension was prepared in parallel to evaluate drug-induced cytotoxicity. The two suspensions were incubated for 90 minutes at room temperature. Test compounds were serially diluted in 10-fold decrements from 100 μg/ml to 0.01 μg/ml (final concentrations in two 96 well microtitre plates. 20 μl of infected cell suspension were inoculated into each well of one of the plates (anti-viral), while 20 μl of uninfected cell suspension were added to each well of the second plate (cytotoxicity). The plates were then incubated for 7 days at 37° C. After incubation, 10 μl of 3-(4,5-dimethylthiazol-2-yl)-2,5-diphenyltetrazolium bromide (MTT) at 20 mg/ml was added to all wells and the plates incubated for a further 90 minutes at 37° C.
150 μl of 10% (v/v) alcoholic Triton X-100 was then added and the cells resuspended. After 15 minutes at room temperature, the plates were analyzed in a Multiskan MC reader at 405 nm. Conversion of yellow MMT to its formazan derivative is maximum in uninfected cells, and absent in untreated infected cells. The optical density values for the cytotoxicity controls and the antiviral test wells were graphically plotted and the dose of compounds required to inhibit the conversion of MMT to 50% of the untreated uninfected controls was calculated. In this way, both the 50% cytotoxic dose (CD 50%) and the 50% anti-viral dose (ID 50%) can be calculated.

MT-4 cells = assay: Formazan (MTT) assay, drug-induced cytotoxicity in uninfected MT-4 cells; settings: human, 7 days
Description: as §1, with “A suspension of cells (approximately 10^6 cells/ml) in RPMI 1640 growth medium was infected with HIV-1 strain RF at a M.O.I. of 10^−3 infectious units/cell.” left out
150 μl of 10% (v/v) alcoholic Triton X-100 was then added and the cells resuspended. After 15 minutes at room temperature, the plates were analyzed in a Multiskan MC reader at 405 nm. […] The optical density values for the cytotoxicity controls and the antiviral test wells were graphically plotted and the dose of compounds required to inhibit the conversion of MMT to 50% of the untreated uninfected controls was calculated.

C8166 cells = assay: Cytotoxicity (CD50) reported with syncytium formation assay; settings: syncytium formation table
[1] = test system: cord blood mononuclear cells (CBM); assay: Cytotoxicity (CD50) reported with CBM assay
Description: Assays on cord blood mononuclear cells were done substantially as described in Gu et al., J. Virol.
In short, viruses (HTLV-IIIB) that had initially been grown on MT-4 cells were passaged onto phytohemaglutinin-prestimulated cord blood mononuclear cells (CBM). For subsequent analysis, samples of CBM (5×10^5 cells per mL) were pretreated with various concentrations of the different compounds for 4 h and were then inoculated with CBL-grown HIV-1 at a multiplicity of infection of 1.0 in the concentration of the compound used for the pretreatment. Fresh medium, including the appropriate concentration of the compound was added three times weekly, and fresh phytohemaglutinin-prestimulated CBM (5×10^5 cells per mL) were added at 2-day intervals. […] 66: 12-19.

HIV-1 IIIB = assay: IC50 in CBMCs with HIV-1 isolate IIIB; settings: Human immunodeficiency virus 1
Description: (§2) In short, viruses (HTLV-IIIB) that had initially been grown on MT-4 cells were passaged onto phytohemaglutinin-prestimulated cord blood mononuclear cells (CBM). For subsequent analysis, samples of CBM (5×10^5 cells per mL) were pretreated with various concentrations of the different compounds for 4 h and were then inoculated with CBL-grown HIV-1 at a multiplicity of infection of 1.0 in the concentration of the compound used for the pretreatment. Fresh medium, including the appropriate concentration of the compound was added three times weekly, and fresh phytohemaglutinin-prestimulated CBM (5×10^5 cells per mL) were added at 2-day intervals. The calculation of IC50 was determined on the basis of RT levels in culture fluids as described in Gao et al., (1992), J. Virol. 66: 12-19.
(§3) Determination of IC50 (μM) in Different Mutated Isolates of HIV-1 in the Presence of Different Antiviral Compounds
(§4) The procedure is similar to the procedure used in the CBM assay, with the exception that constructed virus and construted mutated virus were used.

HIV-1 HXB2D = assay: IC50 in CBMCs with constructed virus HXB2D; settings: Human immunodeficiency virus 1, read-out: IC50 HXB2D
Description: as §2, §3, §4
(§5) The constructed virus HXB2D-65 correspond to the ddC resistance mutation and the constructed virus HXB2D-184 correspond to the 3TC™ and FTC resistance mutation.

[2] = test system: HIV-1 HXB2D-184 M→V (3TC™ and FTC resistance mutation); assay: IC50 in CBMCs with constructed mutated virus HXB2D-184; settings: Human immunodeficiency virus 1, read-out: IC50 HXB2D-184 M→V
Description: as §2, §3, §4, §5

HTLV-IIIb = assay: HIV-1 acutely infected cell lines, p24 antigen levels; settings: p24 antigen at day 6; for ID50 CEM: CEM cells infected with HTLV-IIIb; for ID50 H9: H9 cells infected with HTLV-IIIb; for ID50 Jurkat: Jurkat cells infected with HTLV-IIIb; for ID50 MT-4: MT-4 cells infected with HTLV-IIIb; for ID50 U937: U937 cells infected with HTLV-IIIb
Description: Determination of IC50 ([…]) in HIV-1 Acutely Infected Cell Lines in the Presence of Differet Antiviral Compounds
Various cell lines were infected with HTLV-IIIb (TCID50=200) and then cultured with various concentrations of drug. IC50 was determined by measuring p24 antigen levels in the supernatant of cultures at day 6 of infection.

U937 = assay: Cell culture inhibitory dose (CCID50) in U937; settings: cell counting, trypan blue exclusion, 7 days post drug treatment
Description: (§6) Evaluation of Cell Culture Inhibitory Dose (CCID50)
(§7) Cell growth was determined by cell counting and viability by trypan blue exclusion 7 days post drug treatment. CCID50 is expressed as the drug concentration which inhibits 50% of cell growth.

Jurkat = assay: Cell culture inhibitory dose (CCID50) in Jurkat; settings: cell counting, trypan blue exclusion, 7 days post drug treatment
Description: as §6, §7

H9 = assay: Cell culture inhibitory dose (CCID50) in H9; settings: cell counting, trypan blue exclusion, 7 days post drug treatment
Description: as §6, §7

CEM = assay: Cell culture inhibitory dose (CCID50) in CEM; settings: cell counting, trypan blue exclusion, 7 days post drug treatment
Description: as §6, §7

| SMILES | IC50 (HIV-1 strain RF) | CD50 (50% cytotoxic dose) (MT-4 cells) | CD50 (C8166 cells) | CD50 [1] | IC50 (HIV-1 IIIB) | IC50 (HIV-1 HXB2D) | IC50 [2] | ID50 CEM (HTLV-IIIb) | ID50 H9 (HTLV-IIIb) | ID50 Jurkat (HTLV-IIIb) | ID50 MT-4 (HTLV-IIIb) | ID50 U937 (HTLV-IIIb) | CCID50 U937 (U937) | CCID50 Jurkat (Jurkat) | CCID50 H9 (H9) | CCID50 CEM (CEM) |
| --- | --- | --- | --- | --- | --- | --- | --- | --- | --- | --- | --- | --- | --- | --- | --- | --- |
| Nc1ccn([C@@H]2CO[C@H](CO)S2)c(=O)n1 [Compound #2, 2S-hydroxymethyl-4S-(cytosin-1′-yl)-1,3-oxathiolane] | 4.4 µg/mL (≈ 19.2 µM) | >100 µg/mL | >100 µg/mL | >23 µg/mL | 0.28 µM | 0.1 µM | 3 µM | 0.4 µg/mL (≈ 1.74 µM) | 0.075 µg/mL (≈ 0.327 µM) | 1.8 µg/mL (≈ 7.85 µM) | 0.9 µg/mL (≈ 3.93 µM) | 0.3 µg/mL (≈ 1.31 µM) | 22 µM | 11 µM | >500 µM | 103 µM |
| Nc1nc(=O)n([C@H]2CO[C@@H](CO)S2)cc1F [compound 3, 2R-hydroxymethyl-4R-(5′-fluorocytosin-1′-yl)-1,3-oxathiolane] | 6 µg/mL (≈ 24.3 µM) | >100 µg/mL | >100 µg/mL | >23 µg/mL | 0.83 µM | 3 µM | 9 µM | 0.2 µg/mL (≈ 0.809 µM) | 0.1 µg/mL (≈ 0.404 µM) | 3.5 µg/mL (≈ 14.2 µM) | 3.0 µg/mL (≈ 12.1 µM) | 0.6 µg/mL (≈ 2.43 µM) | >500 µM | >500 µM | >500 µM | >500 µM |
| Nc1nc(=O)n([C@@H]2CO[C@H](CO)S2)cc1F [compound 4, 2S-hydroxymethyl-4S-(5′-fluorocytosin-1′-yl)-1,3-oxathiolane] | 2.9 µg/mL (≈ 11.7 µM) | 100 µg/mL | >100 µg/mL | >23 µg/mL | 0.34 µM | 3 µM | 2 µM | 0.3 µg/mL (≈ 1.21 µM) | 1.0 µg/mL (≈ 4.04 µM) | 6.0 µg/mL (≈ 24.3 µM) | 3.2 µg/mL (≈ 12.9 µM) | 0.4 µg/mL (≈ 1.62 µM) | >500 µM | >500 µM | >500 µM | >500 µM |
